# Calls of active or inactive are those of the source.
# What was measured:
# [1] = molecular target: Eukaryotic translation initiation factor 4E (Mus musculus, UniProt P63073); experiment: blockers of eIF4G binding by eIF4E – biochemical, TR-FRET, dose response (AID 855); format: functional;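 note: potency for disrupting eIF4E binding to eIF4GI seen as loss of FRET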
# Estrogen receptor beta [2] = molecular target: T1, Estrogen receptor beta (Homo sapiens, UniProt Q92731); experiment: blockers of SRC-3 recruitment to ERβ – biochemical, ELISA, streptavidin-HRP readout, orthogonal assay, confirmation (AID 1060)
# T1 sequence (Q92731 whole entry): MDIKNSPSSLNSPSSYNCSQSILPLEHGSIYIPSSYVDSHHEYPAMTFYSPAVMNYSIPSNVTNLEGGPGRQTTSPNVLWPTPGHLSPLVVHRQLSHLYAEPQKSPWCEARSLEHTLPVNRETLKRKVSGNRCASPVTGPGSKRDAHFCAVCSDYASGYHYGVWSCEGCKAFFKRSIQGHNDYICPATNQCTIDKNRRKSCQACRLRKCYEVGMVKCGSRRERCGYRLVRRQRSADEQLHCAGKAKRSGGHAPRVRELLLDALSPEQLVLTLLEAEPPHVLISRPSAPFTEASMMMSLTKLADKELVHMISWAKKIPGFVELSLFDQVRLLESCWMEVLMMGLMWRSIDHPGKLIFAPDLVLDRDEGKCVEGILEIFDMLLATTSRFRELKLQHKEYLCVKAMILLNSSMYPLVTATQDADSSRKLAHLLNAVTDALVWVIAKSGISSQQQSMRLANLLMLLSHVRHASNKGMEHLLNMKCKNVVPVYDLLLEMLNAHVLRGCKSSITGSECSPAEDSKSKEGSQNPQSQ
# [3] = molecular target: SWI/SNF-related matrix-associated actin-dependent regulator of chromatin subfamily A member 2 (Homo sapiens, UniProt P51531); experiment: Luminescence-based cell-based high throughput dose response assay to identify activators of the function of SWI/SNF related, matrix associated, actin dependent regulator of chromatin, subfamily a, member 2 (SMARCA2, BRM).; format: functional
# Chain of SWI/SNF-related matrix-associated actin-dependent regulator of chromatin subfamily A member 2 (P51531 whole entry): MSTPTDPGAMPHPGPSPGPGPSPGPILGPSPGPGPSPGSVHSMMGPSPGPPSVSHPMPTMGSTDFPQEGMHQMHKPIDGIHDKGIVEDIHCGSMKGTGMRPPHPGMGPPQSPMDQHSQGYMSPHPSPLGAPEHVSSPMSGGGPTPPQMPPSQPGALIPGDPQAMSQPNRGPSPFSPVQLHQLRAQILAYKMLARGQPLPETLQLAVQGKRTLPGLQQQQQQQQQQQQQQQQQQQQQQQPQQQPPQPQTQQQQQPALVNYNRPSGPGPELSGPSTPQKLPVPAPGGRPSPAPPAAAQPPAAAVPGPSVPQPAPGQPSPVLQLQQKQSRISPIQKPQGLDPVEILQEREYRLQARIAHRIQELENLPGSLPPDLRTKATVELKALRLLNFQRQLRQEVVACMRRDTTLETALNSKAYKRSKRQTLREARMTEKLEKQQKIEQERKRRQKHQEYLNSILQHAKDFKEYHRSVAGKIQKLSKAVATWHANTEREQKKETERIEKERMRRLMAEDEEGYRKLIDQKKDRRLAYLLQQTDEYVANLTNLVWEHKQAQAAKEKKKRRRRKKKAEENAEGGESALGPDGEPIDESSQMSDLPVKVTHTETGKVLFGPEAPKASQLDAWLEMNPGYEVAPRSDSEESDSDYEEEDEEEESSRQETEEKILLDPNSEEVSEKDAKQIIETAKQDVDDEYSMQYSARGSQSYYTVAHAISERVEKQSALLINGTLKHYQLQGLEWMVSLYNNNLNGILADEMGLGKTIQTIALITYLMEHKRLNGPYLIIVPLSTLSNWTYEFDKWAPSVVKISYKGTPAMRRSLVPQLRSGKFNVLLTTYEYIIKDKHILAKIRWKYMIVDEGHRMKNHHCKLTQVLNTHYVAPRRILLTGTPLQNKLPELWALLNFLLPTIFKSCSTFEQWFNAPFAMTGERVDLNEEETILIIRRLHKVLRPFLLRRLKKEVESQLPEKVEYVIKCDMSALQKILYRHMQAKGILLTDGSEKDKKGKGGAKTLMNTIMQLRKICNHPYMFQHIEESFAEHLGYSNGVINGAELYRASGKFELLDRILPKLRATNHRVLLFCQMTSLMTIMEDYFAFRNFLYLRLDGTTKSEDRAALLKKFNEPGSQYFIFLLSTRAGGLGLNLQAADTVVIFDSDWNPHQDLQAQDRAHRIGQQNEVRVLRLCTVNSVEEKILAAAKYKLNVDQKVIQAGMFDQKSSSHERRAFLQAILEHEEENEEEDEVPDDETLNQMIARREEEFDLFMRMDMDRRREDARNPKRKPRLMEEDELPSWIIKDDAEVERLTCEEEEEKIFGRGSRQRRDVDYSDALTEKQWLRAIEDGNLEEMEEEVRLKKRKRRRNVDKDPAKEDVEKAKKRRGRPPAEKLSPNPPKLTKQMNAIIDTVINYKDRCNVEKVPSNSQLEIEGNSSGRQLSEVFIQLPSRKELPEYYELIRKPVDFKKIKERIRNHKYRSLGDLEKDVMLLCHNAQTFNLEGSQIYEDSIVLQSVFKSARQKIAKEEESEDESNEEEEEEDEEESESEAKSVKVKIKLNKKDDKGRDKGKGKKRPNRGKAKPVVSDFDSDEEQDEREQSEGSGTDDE
# [4] = Counterscreen for activators of the function of SWI/SNF related, matrix associated, actin dependent regulator of chromatin, subfamily a, member 2 (SMARCA2, BRM): Luminescence-based cell-based high throughput dose response assay to identify non-selective compounds using the VP16 reporter assay.; format: functional
# [5] = viability inhibitors of stage V gametocytes – luminescence, dose response (AID 1117278); format: functional, cell-based;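 note: gametocytes exposed to compound for 24 hours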
# [6] = viability loss in human Jurkat cells – cell-based, luminescence, cytotoxicity control for P. falciparum gametocyte viability project, dose response (AID 1117277); format: functional;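 note: potency reflects loss of cellular ATP meaning fewer viable cells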
# [7] = molecular target: Voltage-dependent T-type calcium channel subunit alpha-1H (Homo sapiens, UniProt O95180); format: functional;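 note: channel activity triggered by adding a high calcium stimulation buffer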
# Vero = experiment: cells; format: functional, cell-based; conditions: Chlorocebus sabaeus
# [8] = viability of uninfected HEp-2 cells – cell-based, HTS, cytotoxicity control for RSV inhibitor project, dose response (AID 2410); format: functional; conditions: human respiratory syncytial virus
# [9] = molecular target: T2, Fructose-bisphosphate aldolase (Mycobacterium tuberculosis, UniProt P9WQA3); experiment: Fluorescence-based biochemical high throughput dose response assay for inhibitors of the fructose-bisphosphate aldolase (FBA) of M. tuberculosis.; format: functional
# T2 sequence (P9WQA3 whole entry): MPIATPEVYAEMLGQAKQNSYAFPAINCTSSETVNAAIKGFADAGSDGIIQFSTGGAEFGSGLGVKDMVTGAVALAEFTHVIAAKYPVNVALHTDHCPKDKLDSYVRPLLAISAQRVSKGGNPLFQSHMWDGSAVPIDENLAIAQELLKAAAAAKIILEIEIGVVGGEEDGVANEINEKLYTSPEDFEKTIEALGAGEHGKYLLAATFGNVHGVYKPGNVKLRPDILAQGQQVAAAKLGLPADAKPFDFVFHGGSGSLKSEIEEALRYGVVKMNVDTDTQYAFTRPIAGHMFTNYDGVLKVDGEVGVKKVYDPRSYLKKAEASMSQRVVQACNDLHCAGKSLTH
# [10] = molecular target: T3, E3 ubiquitin-protein ligase XIAP (Homo sapiens, UniProt P98170); experiment: small molecules displacing peptide from XIAP – biochemical, IAP family, fluorescence polarization (AID 1018); format: functional
# T3 sequence (P98170 whole entry): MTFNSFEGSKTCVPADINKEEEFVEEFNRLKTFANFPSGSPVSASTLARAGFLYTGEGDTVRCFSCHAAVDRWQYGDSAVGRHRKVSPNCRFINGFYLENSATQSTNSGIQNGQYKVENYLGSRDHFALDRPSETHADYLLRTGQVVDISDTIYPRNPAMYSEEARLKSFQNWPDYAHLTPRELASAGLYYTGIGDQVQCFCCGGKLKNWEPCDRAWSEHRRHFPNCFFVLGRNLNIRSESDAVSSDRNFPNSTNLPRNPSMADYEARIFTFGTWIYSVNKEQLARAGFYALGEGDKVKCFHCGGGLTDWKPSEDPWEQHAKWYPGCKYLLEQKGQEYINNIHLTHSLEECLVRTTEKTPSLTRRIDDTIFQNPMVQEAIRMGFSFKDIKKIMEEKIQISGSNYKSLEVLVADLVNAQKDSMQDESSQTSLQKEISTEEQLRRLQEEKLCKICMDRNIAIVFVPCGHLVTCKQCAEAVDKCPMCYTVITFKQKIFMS
# [11] = molecular target: T3, E3 ubiquitin-protein ligase XIAP; experiment: Counter Screen using XIAP-Bir3 for Chemical Antagonists of Bir1/2 domains of IAP-family anti-apoptotic proteins. [Related pubchem assays (depositor defined):AID1018, AID1449, AID1514, AID1638, AID1749, AID1750, AID488957, AID488963]
# Bcl-2-related protein A1 = molecular target: T4, Bcl-2-related protein A1 (Mus musculus, UniProt Q07440); format: functional;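 note: confirmatory dose–response counterscreen on Bfl-1, used to check hits from a UBC13 polyubiquitin inhibitor campaign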
# T4 sequence (Q07440 whole entry): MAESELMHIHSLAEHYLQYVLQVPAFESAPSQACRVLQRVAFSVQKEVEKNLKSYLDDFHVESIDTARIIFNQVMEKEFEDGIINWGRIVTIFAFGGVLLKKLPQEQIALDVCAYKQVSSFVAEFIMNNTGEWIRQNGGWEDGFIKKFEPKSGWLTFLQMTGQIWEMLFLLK
# [12] = molecular target: T5, Ubiquitin-conjugating enzyme E2 N (Homo sapiens, UniProt P61088); format: functional;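 note: Dose-response confirmation in a TR-FRET assay detecting UBC13-driven polyubiquitin chain formation, inhibition measured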
# T5 sequence (P61088 whole entry): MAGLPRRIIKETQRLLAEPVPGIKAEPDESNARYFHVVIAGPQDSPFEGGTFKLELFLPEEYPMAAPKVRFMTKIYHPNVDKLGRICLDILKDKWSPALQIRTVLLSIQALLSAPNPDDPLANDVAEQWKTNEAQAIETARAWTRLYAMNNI
# [13] = HIV-1 Vif–A3G interaction blockers – biochemical, TR-FRET, GST-Vif 1-94, biotin-A3G peptide, dose response retest, primary screen (AID 1117319); format: functional;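 note: TR-FRET signal of purified GST-Vif binding a biotinylated A3G peptide; inhibitors lower the FRET signal by blocking Vif and A3G binding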
# Estrogen receptor beta [14] = molecular target: T1, Estrogen receptor beta
# Chain of Eukaryotic translation initiation factor 4E (P63073 whole entry): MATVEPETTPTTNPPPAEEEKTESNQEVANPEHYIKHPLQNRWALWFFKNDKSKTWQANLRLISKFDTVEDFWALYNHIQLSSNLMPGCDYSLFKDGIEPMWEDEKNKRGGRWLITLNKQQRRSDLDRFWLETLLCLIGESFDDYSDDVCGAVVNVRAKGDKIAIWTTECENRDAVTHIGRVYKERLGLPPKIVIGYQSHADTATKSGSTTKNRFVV
structure (smiles),measurement,setting,value
Cc1ccc(Nc2nc3ccccc3nc2-n2nc(C)cc2C)cc1,IC50,[1],> 64 µM (inactive)
CC1CCCC(C)N1CC(=O)Nc1sc2c(c1C#N)CCCC2 (stereo not drawn),IC50,Estrogen receptor beta [2],0.0372 µM (not active)
CCN(CC)C(=O)CSc1nnc(-c2cccc(OC)c2)o1,EC50,[3],> 91.1 µM (inactive)
same,EC50,[4],> 91.1 µM (inactive)
O=C(Cn1cnc2c(oc3ccccc32)c1=O)N1CCCC1,IC50,[5],> 109 µM (inactive)
same,IC50,[6],> 83.4 µM (inactive)
Cc1nn(Cc2ccc(Cl)c(Cl)c2)c(C)c1NC(=O)c1cc(-c2ccco2)on1,EC50,[7],1.35 µM (active)
Cc1ccc(Nc2nc(=O)c3cccnc3s2)c(Br)c1,IC50,Vero,> 25 µM (active)
same,IC50,cells,25 µM (active)
same,CC50,[8],22.8 µM (active)
CC(=O)c1ccc(-c2cnc3c(NC=O)cc(-c4ccc(N5CCN(C)CC5)cc4)cn23)cc1,EC50,[3],56 µM (inactive)
same,EC50,[4],> 91.2 µM (inactive)
Cc1cc(C)nc(SCc2nc3ncccn3c2Br)n1,IC50,[9],1.47 µM (active)
Cc1cc(CNC(=O)COc2ccccc2)c2ccccc2n1,IC50,[10],> 100 µM (not active)
same,IC50,[11],> 100 µM (inactive)
COC(=O)CSc1nnc(-c2cccc(NC(=O)c3ccc(C)cc3)c2)n1C,IC50,[1],> 64 µM (inactive)
CCOc1ccccc1CNCCNC(=O)c1nonc1N,IC50,[5],> 109 µM (inactive)
same,IC50,[6],> 83.3 µM (inactive)
N#Cc1ccc(OCC(=O)NNC(=S)NC(=O)C2CC2)cc1,IC50,Bcl-2-related protein A1,> 20 µM (inactive)
same,IC50,[12],6.5 µM (active)
C=CCN1C(=O)CSc2ccc(C(=O)NCc3ccco3)cc21,IC50,[13],> 100 µM (active)
O=S(=O)(c1cccc(-c2csc(-c3ccccc3)n2)c1)N1CCOCC1,IC50,cells,28.4 µM (active)
same,CC50,[8],37.8 µM (active)
Nc1c(Cl)cc(Cl)cc1C(=O)OCC(=O)NC1CC1,IC50,Estrogen receptor beta [14],26.5 µM (active)
same,IC50,Estrogen receptor beta [2],< 0.023 µM (not active)
Cc1cccc(OCCN2C(=O)c3ccccc3C2=O)c1,IC50,[5],> 109 µM (inactive)
same,IC50,[6],> 83.2 µM (inactive)
CC1(C(=O)Nc2ccccc2)Cc2c(-c3ccc4c(c3)OCO4)ccnc2O1 (stereo not drawn),IC50,[9],2.52 µM (active)

# — ChEMBL document CHEMBL1201862, “PubChem BioAssay data set” (2004)
